Columns and labels:
Format in all cases: cell-based, human
VTNR (CD51/61) = experiment: Unstimulated whole blood flow cytometry, vitronectin receptor; conditions: for VTNR (CD51/61), Mean Fluorescence Intensity: unstimulated, Mean ± SD
Experimental: (§1) The methodology employed was conventional aggregation induced by 5 μM ADP, 1 μg/ml collagen, 10 μM TRAP, whole blood aggregation with 1 μg/ml collagen, Ultegra, and PFA-100 Analyzers, expression of 14 intact, and TRAP-stimulated major receptors by whole blood flow cytometry were utilized to assess platelet activity after preincubation with escalating concentrations of E5555 (20 ng/ml, 50 ng/ml, and 100 ng/ml). The experiments were performed in healthy volunteers, CAD patients treated with ASA, and CAD patients treated with ASA and clopidogrel combination (n=10, for each group).
(§2) An Informed Consent was obtained from all volunteers. Drug users were excluded from data analysis. The study was approved by Quorum Institutional Review Board. All subjects underwent blood sampling after at least 30 minutes of rest and two or more hours of fasting. Blood (28 ml) was drawn between 8 and 10 a.m. in order to avoid any diurnal influence and sampled from an antecubital vein using a 21-gauge butterfly needle containing 3.2% sodium citrate (1:9 volume) after having discarded the first 1.5 ml of free running blood. Four Vacutainer tubes (7.0 ml) were collected for a total of 28 ml of whole blood-citrate mixture from each study participant. Chronologically, blood samples were delivered to the core laboratory facility within 45 minutes after drawing. Then all tubes of blood-citrate mixture were pooled. One portion of pooled blood (5 ml) was kept as an internal control and pretreated with the vehicle. The remaining blood (23 ml) was used for the in vitro exposure to E5555 at concentrations of 20 ng/ml, 50 ng/ml, and 100 ng/ml. […] The platelet aggregation studies, Rapid Analyzers measures, and flow cytometry preparations were initiated within no more than 110 minutes following the blood draw, incubation with the drug, and preparation of the samples.
(§3) Formation of platelet-leukocyte aggregates was assessed by dual labeling with pan-platelet marker (CD151), and then with CD14, the macrophage receptor for endotoxin lipopolysaccharides (PharMingen, and Coulter, San Diego, Calif., USA). The tubes were then covered with aluminum foil and incubated at 37° C. for 40 minutes with gentle rotation. After incubation, samples were immediately analyzed on a Becton Dickinson FACScan flow cytometer. The instrument was set up to measure forward light scatter, and FITC fluorescence. All parameters were collected using four-decade logarithmic amplification. The data was retrieved in list mode files and then analyzed. P selectin was expressed as percent positive cells. Other antigens were expressed as log mean fluorescence intensity.

CD-40L (CD154) = experiment: Unstimulated whole blood flow cytometry, CD40-ligand; conditions: for CD-40L (CD154), Mean Fluorescence Intensity: unstimulated, Mean ± SD
Experimental: as §1, §2, §3

GPIb (CD42b) = experiment: TRAP-stimulated whole blood flow cytometry, GPIb; conditions: Mean ± SD
Experimental: as §1, §2, §3
For flow cytometry (TRAP-stimulated) all of the above flow cytometry experiments were identically repeated utilizing prestimulation with 10 μmol/L TRAP for 5 minutes at 37° C. To determine statistics, a Paired Sign Test was used to define significance of differences between vehicle and E5555-treated groups. The Mann-Whitney U test was used to analyze nonparametric data. Normally distributed data were expressed as mean±standard error (m±SE), and skewed data as median (range). All P-values were two sided. All analysis was performed using the SPSS v9.0 program (SPSS Inc., Chicago, Ill.).

platelets [1] = experiment: Conventional platelet aggregation in PRP induced by 5 μM ADP; conditions: for Platelet Aggregation (%), ADP 5 μM: Mean ± SD
Experimental: as §1, §2
(§4) Platelet counts were determined in each PRP sample with a Coulter Counter ZM (Coulter Co., Hialeah, Fla.). Platelet numbers were adjusted to 3.50×10^8/ml for aggregation using homologous platelet-poor plasma. Platelet aggregation was stimulated with 5 μM ADP, 1 μg/ml collagen, or 10 μM TRAP. All agonists were obtained from Chronolog Corporation (Havertown, Pa.) and Sigma (St. Louis, Miss.). Platelet aggregation experiments were performed using a Chrono-Log Lumi-Aggregometer (model 560-Ca). Aggregation curves were recorded for 4 minutes and analyzed according to internationally established standards using Aggrolink® software. Platelet aggregability was expressed as the percentage of light transmittance change from baseline using platelet-poor plasma as a reference.

platelets [2] = experiment: Platelet aggregation induced by 10 μM TRAP; conditions: for Platelet Aggregation (%), TRAP 10 μM: Mean ± SD
Experimental: as §1, §2, §4

[3] = overall summary, stimulation not stated
[4] = E5555 20 ng/ml, Patients (ASA + C)
[5] = E5555 50 ng/ml, Patients (ASA + C)
[6] = E5555 100 ng/ml, Patients (ASA + C)
[7] = E5555 100 ng/ml, Patients (ASA)
[8] = ASA-treated patients with coronary artery disease
[9] = CAD patients treated with ASA+clopidogrel
[10] = E5555 20 ng/ml, CAD patients treated with ASA + clopidogrel
[11] = E5555 20 ng/ml, CAD patients treated with ASA
[12] = E5555 20 ng/ml, healthy volunteers
[13] = E5555 50 ng/ml, CAD patients treated with ASA + clopidogrel
[14] = E5555 50 ng/ml, CAD patients treated with ASA
[15] = E5555 50 ng/ml, healthy volunteers
[16] = E5555 100 ng/ml, CAD patients treated with ASA + clopidogrel
[17] = E5555 100 ng/ml, CAD patients treated with ASA
[18] = E5555 100 ng/ml, healthy volunteers
[19] = healthy volunteers, E5555 20, 50, and 100 ng/ml

For Br.CCOc1cc2c(c(F)c1OCC)C(=N)N(CC(=O)c1cc(N3CCOCC3)c(OC)c(C(C)(C)C)c1)C2 [E5555, 1-(3-tert-butyl-4-methoxy-5-morpholinophenyl)-2-(5,6-diethoxy-7-fluoro-1-imino-1,3-dihydro-2H-isoindol-2-yl)ethanone hydrobromide], the “vitronectin receptor expression, effect in words” value (VTNR (CD51/61); [3]) was “significant reduction”, the “VTNR (CD51/61), Mean Fluorescence Intensity” value (from here on “VTNR”) (VTNR (CD51/61); [4]) was 7.9 ± 1.8 MFI and the “VTNR” value (VTNR (CD51/61); E5555 20 ng/ml, Patients (ASA)) was 8.4 ± 1.5 MFI. For the same molecule, the “VTNR” value (VTNR (CD51/61); E5555 20 ng/ml, Volunteers) was 8.7 ± 0.6 MFI, the “VTNR” value (VTNR (CD51/61); [5]) was 8.2 ± 1.6 MFI and the “VTNR” value (VTNR (CD51/61); E5555 50 ng/ml, Patients (ASA)) was 8.6 ± 2.1 MFI. For the same molecule, the “VTNR” value (VTNR (CD51/61); E5555 50 ng/ml, Volunteers) was 9.1 ± 1.0 MFI, the “VTNR” value (VTNR (CD51/61); [6]) was 9.0 ± 2.4 MFI and the “VTNR” value (VTNR (CD51/61); [7]) was 8.3 ± 14 MFI. The “VTNR” value (VTNR (CD51/61); E5555 100 ng/ml, Volunteers) was 9.6 ± 1.1 MFI, the “CD40-ligand, effect in words” value (CD-40L (CD154); [3]) was “not affected” and the “CD-40L (CD154), Mean Fluorescence Intensity” value (shortened to “CD-40L (CD154)”) (CD-40L (CD154); [4]) was 5.1 ± 1.0 MFI. For the same molecule, the “CD-40L (CD154)” value (CD-40L (CD154); E5555 20 ng/ml, Patients (ASA)) was 5.0 ± 1.0 MFI, the “CD-40L (CD154)” value (CD-40L (CD154); E5555 20 ng/ml, Volunteers) was 5.4 ± 0.8 MFI and the “CD-40L (CD154)” value (CD-40L (CD154); [5]) was 5.2 ± 0.7 MFI. The “CD-40L (CD154)” value (CD-40L (CD154); E5555 50 ng/ml, Patients (ASA)) was 5.2 ± 0.8 MFI, the “CD-40L (CD154)” value (CD-40L (CD154); E5555 50 ng/ml, Volunteers) was 5.3 ± 0.5 MFI and the “CD-40L (CD154)” value (CD-40L (CD154); [6]) was 5.3 ± 1.3 MFI. For the same molecule, the “CD-40L (CD154)” value (CD-40L (CD154); [7]) was 5.1 ± 1.0 MFI, the “CD-40L (CD154)” value (CD-40L (CD154); E5555 100 ng/ml, Volunteers) was 5.0 ± 0.9 MFI and the “GPIb (CD42b), Mean Fluorescence Intensity” value (from here on “GPIb (CD42b)”) (GPIb (CD42b); [4]) was 105 ± 14 MFI. For the same molecule, the “GPIb (CD42b)” value (GPIb (CD42b); E5555 20 ng/ml, Patients (ASA)) was 102 ± 9 MFI, the “GPIb (CD42b)” value (GPIb (CD42b); E5555 20 ng/ml, Volunteers) was 134 ± 17 MFI and the “GPIb (CD42b)” value (GPIb (CD42b); [5]) was 102 ± 19 MFI. The “GPIb (CD42b)” value (GPIb (CD42b); E5555 50 ng/ml, Patients (ASA)) was 104 ± 17 MFI, the “GPIb (CD42b)” value (GPIb (CD42b); E5555 50 ng/ml, Volunteers) was 125 ± 24 MFI and the “GPIb (CD42b)” value (GPIb (CD42b); [6]) was 137 ± 18 MFI. For the same molecule, the “GPIb (CD42b)” value (GPIb (CD42b); [7]) was 100 ± 14 MFI, the “GPIb (CD42b)” value (GPIb (CD42b); E5555 100 ng/ml, Volunteers) was 150 ± 26 MFI and the “inhibition of platelet activity, aggregation induced by ADP” value (platelets [1]; [8]) was 10-12%. The “ADP-induced aggregation, effect in words” value (platelets [1]; [9]) was “remains unchanged”, the “Platelet Aggregation (%), ADP 5 μM” value (platelets [1]; [10]) was 40.8 ± 7.1% and the “Platelet Aggregation (%), ADP 5 μM” value (platelets [1]; [11]) was 51.8 ± 4.7 %. For the same molecule, the “Platelet Aggregation (%), ADP 5 μM” value (platelets [1]; [12]) was 57.0 ± 9.2 %, the “Platelet Aggregation (%), ADP 5 μM” value (platelets [1]; [13]) was 42.6 ± 8.3% and the “Platelet Aggregation (%), ADP 5 μM” value (platelets [1]; [14]) was 53.3 ± 5.9 %. For the same molecule, the “Platelet Aggregation (%), ADP 5 μM” value (platelets [1]; [15]) was 59.4 ± 7.9 %, the “Platelet Aggregation (%), ADP 5 μM” value (platelets [1]; [16]) was 39.3 ± 5.1% and the “Platelet Aggregation (%), ADP 5 μM” value (platelets [1]; [17]) was 56.2 ± 5.3%. For the same molecule, the “Platelet Aggregation (%), ADP 5 μM” value (platelets [1]; [18]) was 60.8 ± 10.0 %, the “inhibition of conventional platelet aggregation induced by ADP” value (platelets [1]; [19]) was 15-20% and the “inhibition of ADP-induced platelet aggregation in plasma” value (platelets [1]; overall summary of the study) was 10-15%. For the same molecule, the “TRAP-induced aggregation, effect in words” value (shortened to “TRAP-induced aggregation”) (platelets [2]; [8]) was “fully inhibiting”, the “TRAP-induced aggregation” value (platelets [2]; [9]) was “profound blockade” and the “Platelet Aggregation (%), TRAP 10 μM” value (platelets [2]; [10]) was 2.2 ± 1.6 %. The “Platelet Aggregation (%), TRAP 10 μM” value (platelets [2]; [11]) was 2.7 ± 1.4 %, the “Platelet Aggregation (%), TRAP 10 μM” value (platelets [2]; [12]) was 2.1 ± 1.2 % and the “Platelet Aggregation (%), TRAP 10 μM” value (platelets [2]; [13]) was 1.8 ± 1.0 %. The “Platelet Aggregation (%), TRAP 10 μM” value (platelets [2]; [14]) was 3.3 ± 1.8 %, the “Platelet Aggregation (%), TRAP 10 μM” value (platelets [2]; [15]) was 1.3 ± 1.2 % and the “Platelet Aggregation (%), TRAP 10 μM” value (platelets [2]; [16]) was 2.7 ± 2.2 %. The “Platelet Aggregation (%), TRAP 10 μM” value (platelets [2]; [17]) was 2.9 ± 2.0 %, the “Platelet Aggregation (%), TRAP 10 μM” value (platelets [2]; [18]) was 2.7 ± 1.8 % and the “TRAP-induced aggregation” value (platelets [2]; [19]) was “inhibited completely”. For the same molecule, the “TRAP-induced aggregation” value (platelets [2]; overall summary of the study) was “inhibited almost completely”.

From patent US20100056519A1, “COMPOSITION AND METHOD FOR REDUCING PLATELET ACTIVATION AND FOR THE TREATMENT OF THROMBOTIC EVENTS” (priority 2008, published 2010)
